This test deals with T1, Human Factor D (Homo sapiens, UniProt P00746).
T1 construct: purified from human serum; purchased Complement Technology, Inc; host or cells: human serum (natural protein, not recombinant)
Briefly: Human Factor D Assay. The format is biochemical. The protocol: Human Factor D (purified from human serum, Complement Technology, Inc.) at 80 nM final concentration is incubated with test compound at various concentrations for 5 minutes at room temperature in 50 mM Tris, 1M NaCl, pH 7.5. A synthetic substrate Z-L-Lys-SBzl and DTNB (Ellman's reagent) are added to final concentrations of 100 μM each. Absorbance at 405 nm (A405) is recorded at 30 second intervals for 30 minutes using a microplate spectrophotometer. IC50 values are calculated by nonlinear regression of complement Factor D reaction rates as a function of test compound concentration.

Where [1] appears, read: Table 1, Factor D 80 nM, substrate Z-L-Lys-SBzl, read-out: IC50.
[2] abbreviates: Table 2, Factor D 80 nM, substrate Z-L-Lys-SBzl, read-out: IC50.
[3] abbreviates: Table 3, factor D inhibition assay, read-out: IC50 (Stars).

The structures appear in SMILES notation. Read-outs that look alike come from different tables or passages of the source.

T1 sequence (P00746 26-253): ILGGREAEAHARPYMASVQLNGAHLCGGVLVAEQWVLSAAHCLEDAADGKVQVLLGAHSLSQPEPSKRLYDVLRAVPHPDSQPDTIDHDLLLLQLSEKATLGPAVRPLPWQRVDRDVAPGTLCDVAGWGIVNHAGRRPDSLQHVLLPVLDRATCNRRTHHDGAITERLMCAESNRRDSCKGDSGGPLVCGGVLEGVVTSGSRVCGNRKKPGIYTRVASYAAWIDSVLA

Usually IC50 stands for the midpoint of a concentration-inhibition curve. Consider `CC(=O)c1cn(CC(=O)N2C[C@H](F)C[C@H]2C(=O)NCc2cccc(Cl)c2F)c2ccc(NC(=O)NC3(C)CC3)cc12` [Compound 4, (2S,4R)-1-(2-(3-acetyl-5-(3-(1-methylcyclopropyl)ureido)-1H-indol-1-yl)acetyl)-N-(3-chloro-2-fluorobenzyl)-4-fluoropyrrolidine-2-carboxamide], for which the IC50 under setting [1] is under 1000 nM.

As for `NC(=O)c1nn(CC(=O)N2C[C@H](F)C[C@H]2C(=O)Nc2cccc(-c3ccccc3Cl)c2F)c2cc(C(=O)N3CCCC3)sc12` [Compound 60, 1-(2-((2S,4R)-2-(2′-chloro-2-fluorobiphenyl-3-ylcarbamoyl)-4-fluoropyrrolidin-1-yl)-2-oxoethyl)-5-(pyrrolidine-1-carbonyl)-1H-thieno[3,2-c]pyrazole-3-carboxamide], the 50% inhibitory concentration (IC50) under setting [2] is under 1000 nM.

As to `NC(=O)c1nn(CC(=O)N2[C@@H]3C[C@@H]3C[C@H]2C(=O)Nc2cccc(Br)n2)c2ccc(NC(=O)N3CCCC(F)(F)C3)cc12` [Compound 34, 1-(2-((1R,3S,5R)-3-(6-bromopyridin-2-ylcarbamoyl)-2-azabicylco[3.1.0]hexan-2-yl)-2-oxoethyl)-5-(3,3-difluoropiperidine-1-carboxamido)-1H-indazole-3-carboxamide], under setting [1], the IC50 was under 1000 nM.

Consider `CC(=O)c1cn(CC(=O)N2C[C@H](F)C[C@H]2C(=O)NCc2ccccc2)c2ccc(NC(=O)N3CCCC(F)(F)C3)cc12` [Compound 196, N-(3-acetyl-1-(2-((2S,4R)-2-(benzocarbamoyl)-4-fluoropyrrolidin-1-yl)-2-oxoethyl)-1H-indol-5-yl)-3,3-difluoropiperidine-1-carboxamide], for which the IC50 under setting [3] is under 1000 nM.

As to `CC(=O)c1cn(CC(=O)N2C[C@H](F)C[C@H]2C(=O)NCc2cccc(Cl)c2F)c2ccc(NC(=O)NCc3ccon3)cc12` [Compound 7, (2S,4R)-1-(2-(3-acetyl-5-(3-(isoxazol-3-ylmethyl)ureido)-1H-indol-1-yl)acetyl)-N-(3-chloro-2-fluorobenzyl)-4-fluoropyrrolidine-2-carboxamide], the half-maximal inhibitory concentration (IC50) under setting [1] was under 1000 nM.

With `CC(=O)c1cn(CC(=O)N2C[C@H](F)C[C@H]2C(=O)NCc2cccc(Cl)c2F)c2cc(C(=O)NS(C)(=O)=O)ccc12` [Compound 43], under setting [1], the IC50 is under 1000 nM.

For the molecule `CC(=O)c1nn(CC(=O)N2C[C@H](F)C[C@H]2C(=O)Nc2cccc(Br)n2)c2cc(C(=O)NS(=O)(=O)C3CC3)ccc12` [Compound 233, 3-acetyl-1-(2-((2S,4R)-2-((6-bromopyridin-2-yl)-carbamoyl)-4-fluoro-pyrrolidin-1-yl)-2-oxoethyl)-N-(cyclopropylsulfonyl)-1H-indazole-6-carboxamide], under setting [3], the IC50 was under 1000 nM.

Take `CC(=O)c1nn(CC(=O)N2C[C@H](F)C[C@H]2C(=O)Nc2cccc(Br)n2)c2ccc(NC(=O)C3CCCC3(F)F)cc12` (stereo partly shown) [Compound 230]: under setting [3], the IC50 was under 1000 nM.

With `CC(=O)c1cn(CC(=O)N2C[C@H](F)C[C@H]2C(=O)NCc2cccc(Cl)c2F)c2ccc(C(=O)NS(=O)(=O)C3CC3)cc12` [Compound 208, 3-acetyl-1-(2-((2S,4R)-2-((3-chloro-2-fluorobenzyl)carbamoyl)-4-fluoropyrrolidin-1-yl)-2-oxoethyl)-N-(cyclopropylsulfonyl)-1H-indole-5-carboxamide], the IC50 under setting [3] was under 1000 nM.

As to `CC(=O)c1cn(CC(=O)N2C[C@H](F)C[C@H]2C(=O)NCc2cccc(Cl)c2F)c2ccc(NC(=O)NCC(F)(F)F)cc12` [Compound 21, (2S,4R)-1-(2-(3-acetyl-5-(3-(2,2,2-trifluoroethyl)ureido)-1H-indol-1-yl)acetyl)-N-(3-chloro-2-fluorobenzyl)-4-fluoropyrrolidine-2-carboxamide], under setting [1], the half-inhibitory concentration (IC50) is under 1000 nM.

As for `NC(=O)c1nn(CC(=O)N2C[C@H](F)C[C@H]2C(=O)Nc2cccc(-c3ccccc3Cl)c2F)c2cc(C(=O)N3CCOCC3)sc12` [Compound 59, 1-(2-((2S,4R)-2-(2′-chloro-2-fluorobiphenyl-3-ylcarbamoyl)-4-fluoropyrrolidin-1-yl)-2-oxoethyl)-5-(morpholine-4-carbonyl)-1H-thieno[3,2-c]pyrazole-3-carboxamide], under setting [2], the IC50 is under 1000 nM.

On to `Cc1cccc(NC(=O)[C@@H]2[C@H]3CC[C@H](C3)N2C(=O)Cn2cc(C(N)=O)c3cc(C(=O)NS(=O)(=O)C4CC4)ccc32)n1` [Compound 209, N5-(cyclopropylsulfonyl)-1-(2-((1R,4S)-3-((6-methyl-pyridin-2-yl)carbamoyl)-2-aza-bicyclo[2.2.1]heptan-2-yl)-2-oxoethyl)-1H-indole-3,5-dicarboxamide], for which the concentration for half-maximal inhibition (IC50) under setting [3] is over 10000 nM.

`CC(=O)c1cn(CC(=O)N2C[C@H](F)C[C@H]2C(=O)NCc2cccc(Cl)c2F)c2ccc(NC(=O)OC3CC3)cc12` [Compound 14, cyclopropyl 3-acetyl-1-(2-((2S,4R)-2-(3-chloro-2-fluorobenzylcarbamoyl)-4-fluoropyrrolidin-1-yl)-2-oxoethyl)-1H-indol-5-ylcarbamate]: the IC50 under setting [1] is under 1000 nM.

Regarding `CC(=O)c1cn(CC(=O)N2C[C@H](F)C[C@H]2C(=O)NCCCc2ccccc2)c2ccc(C(=O)NS(=O)(=O)C3CC3)cc12` [Compound 190, 3-acetyl-N-(cyclopropylsulfonyl)-1-(2-((2S,4R)-4-fluoro-2-((3-phenylpropyl)carbamoyl)pyrrolidin-1-yl)-2-oxoethyl)-1H-indole-5-carboxamide], under setting [3], the IC50 was in the range of 1000 to 10000 nM.

Take `CNC(=O)c1cc2c(s1)c(C(N)=O)nn2CC(=O)N1C[C@H](F)C[C@H]1C(=O)Nc1cccc(-c2ccccc2Cl)c1F` [Compound 58]: the half-maximal inhibitory concentration (IC50) under setting [2] was under 1000 nM.

Turning to `CC(=O)c1cn(CC(=O)N2C[C@H](F)C[C@H]2C(=O)NCc2cccc(Cl)c2F)c2cc(C(=O)N[C@H]3CCN(C(=O)OC(C)(C)C)C3)ccc12` [Compound 44, (S)-tert-butyl 3-(3-acetyl-1-(2-((2S,4R)-2-(3-chloro-2-fluorobenzyl-carbamoyl)-4-fluoropyrrolidin-1-yl)-2-oxoethyl)-1H-indole-6-carboxamido) pyrrolidine-1-carboxylate], the IC50 under setting [1] is under 1000 nM.

Turning to `CC(=O)c1cn(CC(=O)N2C[C@H](F)C[C@H]2C(=O)Nc2cccc(C(F)(F)F)n2)c2ccc(NC(=O)N3CCCC(F)(F)C3)cc12` [Compound 20, N-(3-acetyl-1-(2-((2S,4R)-4-fluoro-2-(6-(trifluoromethyl)pyridin-2-ylcarbamoyl)pyrrolidin-1-yl)-2-oxoethyl)-1H-indol-5-yl)-3,3-difluoropiperidine-1-carboxamide], under setting [1], the concentration for half-maximal inhibition (IC50) is under 1000 nM.

As for `CC(=O)c1cn(CC(=O)N2C[C@H](F)C[C@H]2C(=O)NCc2cccc(Cl)c2F)c2ccc(C(=O)N3CC=C(B(O)O)CC3)cc12` [Compound 38, 1-(3-acetyl-1-(2-((2S,4R)-2-(3-chloro-2-fluorobenzylcarbamoyl)-4-fluoropyrrolidin-1-yl)-2-oxoethyl)-1H-indole-5-carbonyl)-1,2,3,6-tetrahydropyridin-4-ylboronic acid], the half-maximal inhibitory concentration (IC50) under setting [1] is under 1000 nM.

In the case of `CC(=O)c1cn(CC(=O)N2C[C@H](F)C[C@H]2C(=O)Nc2cccc(OC(F)(F)F)c2F)c2ccc(NC(=O)N3CCCC(F)(F)C3)cc12` [Compound 17, N-(3-acetyl-1-(2-((2S,4R)-4-fluoro-2-(2-fluoro-3-(trifluoromethoxy)phenylcarbamoyl)pyrrolidin-1-yl)-2-oxoethyl)-1H-indol-5-yl)-3,3-difluoropiperidine-1-carboxamide], the 50% inhibitory concentration (IC50) under setting [1] was under 1000 nM.

Regarding `CC(=O)c1cn(CC(=O)N2C[C@H](F)C[C@H]2C(=O)NCc2cccc(Cl)c2F)c2ccc(NC(=O)Nc3ccon3)cc12` [Compound 19, (2S,4R)-1-(2-(3-acetyl-5-(3-isoxazol-3-ylureido)-1H-indol-1-yl)acetyl)-N-(3-chloro-2-fluorobenzyl)-4-fluoropyrrolidine-2-carboxamide], under setting [1], the IC50 is under 1000 nM.

As for `CC(C)(C)C(=O)Nc1nc2c(s1)c(C(N)=O)nn2CC(=O)N1C[C@H](F)C[C@H]1C(=O)NCc1cccc(Cl)c1F` [Compound 56, 1-(2-((2S,4R)-2-(3-chloro-2-fluorobenzylcarbamoyl)-4-fluoropyrrolidin-1-yl)-2-oxoethyl)-5-pivalamido-1H-pyrazolo[3,4-d]thiazole-3-carboxamide], under setting [2], the IC50 was under 1000 nM.

In the case of `CC(=O)c1cn(CC(=O)N2C[C@H](F)C[C@H]2C(=O)NCc2cccc(Cl)c2F)c2ccc(C(=O)N3CC4CCC3C4)cc12` (stereo partly drawn) [Compound 39, (2S,4R)-1-(2-(3-acetyl-5-(2-azabicyclo[2.2.1]heptane-2-carbonyl)-1H-indol-1-yl)acetyl)-N-(3-chloro-2-fluorobenzyl)-4-fluoropyrrolidine-2-carboxamide], under setting [1], the IC50 was under 1000 nM.

Regarding `CC(=O)c1cn(CC(=O)N2C[C@H](F)C[C@H]2C(=O)NCc2cccc(Cl)c2F)c2cc(C(=O)N3CCC(CN)C3)ccc12` (stereo partly drawn) [Compound 42, (2S,4R)-1-(2-(3-acetyl-6-(3-(aminomethyl)-pyrrolidine-1-carbonyl)-1H-indol-1-yl)acetyl)-N-(3-chloro-2-fluorobenzyl)-4-fluoropyrrolidine-2-carboxamide], the IC50 under setting [1] is under 1000 nM.

`NC(=O)c1nn(CC(=O)N2C[C@H](F)C[C@H]2C(=O)Nc2cccc(-c3ccccc3Cl)c2F)c2cc(C(=O)NC3CCCC3)sc12` [Compound 61, 1-(2-((2S,4R)-2-(2′-chloro-2-fluorobiphenyl-3-ylcarbamoyl)-4-fluoropyrrolidin-1-yl)-2-oxoethyl)-N5-cyclopentyl-1H-thieno[3,2-c]pyrazole-3,5-dicarboxamide]: the IC50 under setting [2] was under 1000 nM.

Take `CC(=O)c1cn(CC(=O)N2C[C@H](F)C[C@H]2C(=O)NCc2ccccc2)c2ccc(C(=O)NS(=O)(=O)C3CC3)cc12` [Compound 180, 3-acetyl-1-(2-((2S,4R)-2-(benzylcarbamoyl)-4-fluoropyrrolidin-1-yl)-2-oxoethyl)-N-(cyclopropylsulfonyl)-1H-indole-5-carboxamide]: the half-inhibitory concentration (IC50) under setting [3] fell in the range of 1000 to 10000 nM.

For the origin of these results see patent US10138225B2 (Achillion Pharmaceuticals, Inc., priority 2015, dated 2018).
